Our source for the IC50 values is patent publication US9914730B2, “Azaquinazoline inhibitors of Atypical protein Kinase C” (Ignyta, Inc., priority 2012, dated 2018).

The target in this assay is T1, full-length human PKCι (Homo sapiens, UniProt P41743).
T1 construct: Recombinant, full-length human PKCι expressed in Sf21 insect cells is also commercially available; purchased; host or cells: Sf21 insect cells
T1 sequence (P41743 1-596): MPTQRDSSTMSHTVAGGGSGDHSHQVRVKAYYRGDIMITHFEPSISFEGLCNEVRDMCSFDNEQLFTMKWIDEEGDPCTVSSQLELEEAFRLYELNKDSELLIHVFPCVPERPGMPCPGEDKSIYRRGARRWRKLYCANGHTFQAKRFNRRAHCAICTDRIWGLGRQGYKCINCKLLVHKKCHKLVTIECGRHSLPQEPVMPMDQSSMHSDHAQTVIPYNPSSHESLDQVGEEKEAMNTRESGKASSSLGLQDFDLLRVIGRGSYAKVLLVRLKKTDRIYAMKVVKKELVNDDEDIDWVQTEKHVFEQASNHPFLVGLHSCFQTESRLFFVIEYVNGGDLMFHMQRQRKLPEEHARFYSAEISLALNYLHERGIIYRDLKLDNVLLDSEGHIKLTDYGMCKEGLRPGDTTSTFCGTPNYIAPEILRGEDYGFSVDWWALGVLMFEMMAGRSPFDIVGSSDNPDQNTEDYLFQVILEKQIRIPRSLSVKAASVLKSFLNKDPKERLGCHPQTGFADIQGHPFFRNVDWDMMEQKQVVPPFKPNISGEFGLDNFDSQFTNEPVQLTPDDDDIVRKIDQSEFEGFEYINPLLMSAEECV
In words: PKCι IC50 IMAP assay, full-length PKCι at 150 μM ATP. Conditions: read-out: IC50 in IMAP assay against full length PKCi at 150 μM ATP. It counts as biochemical. The method in brief:
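Full-length hPKCι (Sf21) ~15 pM; 5FAM-peptide 100 nM; ATP 150 μM (5× KM^APP); tris pH7.5/MgCl2/EGTA/DTT/Triton, 4% DMSO; 60 min RT; IMAP stop, 2 h; FP 485/530 nm; IC50 from % inhibition curves.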

Bounds are passed on as bounds.

Turning to `N#Cc1ccc(Nc2cc(-c3nc(N[C@@H]4CCNC4)c4ccncc4n3)ccn2)nc1` [Example 341, 6-{4-[4-((R)-Pyrrolidin-3-ylamino)-pyrido[3,4-d]pyrimidin-2-yl]-pyridin-2-ylamino}-nicotinonitrile], the IC50 was below 100 nM.
In the case of `COc1cncc2nc(-c3ccnc(Nc4cnn(-c5ccccc5)c4)c3)nc(N3CCNCC3)c12` [Example 489, 4-(5-Methoxy-4-piperazin-1-yl-pyrido[3,4-d]pyrimidin-2-yl)-N-(1-phenylpyrazol-4-yl)pyridin-2-amine], the IC50 was below 100 nM.
In the case of `N#Cc1ccc(Nc2cc(-c3nc(N4CCNCC4)c4c(C5CC5)cncc4n3)ccn2)cc1` [Example 645, 4-[4-(5 Cyclopropyl-4-piperazin-1-yl-pyrido[3,4-d]pyrimidin-2-yl)-pyridin-2-ylamino]-benzonitrile] it was below 100 nM.
`O[C@@H]1Cc2ccccc2[C@@H]1Nc1cc(-c2nc(N3CCNCC3)c3c(C4CC4)cncc3n2)ccn1` [Example 2140, (1S,2R)-1-[4-(5-Cyclopropyl-4-piperazin-1-yl-pyrido[3,4-d]pyrimidin-2-yl)-pyridin-2-ylamino]-indan-2-ol]: the IC50 is below 100 nM.
The same measure for `CN(c1nc(-c2ccnc(Nc3nc(F)c(F)cc3F)c2)nc2cncc(C3CC3)c12)C1CCNCC1` [Example 2014, {5-Cyclopropyl-2-[2-(3,5,6-trifluoro-pyridin-2-ylamino)-pyridin-4-yl]-pyrido[3,4-d]pyrimidin-4-yl}-methyl-piperidin-4-yl-amine]: below 100 nM.
Turning to `COc1cncc2nc(-c3ccnc(Nc4ccc(N5CCN(C)CC5)cc4C)c3)nc(N3CCNCC3)c12` [Example 413, [4-(5-Methoxy-4-piperazin-1-yl-pyrido[3,4-d]pyrimidin-2-yl)-pyridin-2-yl]-[2-methyl-4-(4-methyl-piperazin-1-yl)-phenyl]-amine], the IC50 is below 100 nM.
The same measure for `COc1cncc2nc(-c3ccnc(Nc4cccc(C(F)(F)F)c4F)c3)nc(N3CCNCC3)c12` [Example 452, (2-Fluoro-3-trifluoromethyl-phenyl)-[4-(5-methoxy-4-piperazin-1-yl-pyrido[3,4-d]pyrimidin-2-yl)-pyridin-2-yl]-amine]: 100 to 1000 nM; for `COc1cc(Nc2cc(-c3nc(N4CCNCC4)c4c(OC)cncc4n3)ccn2)ccc1N1CCOCC1` [Example 382, (3-Methoxy-4-morpholin-4-yl-phenyl)-[4-(5-methoxy-4-piperazin-1-yl-pyrido[3,4-d]pyrimidin-2-yl)-pyridin-2-yl]-amine]: below 100 nM; for `Fc1cccc(F)c1Nc1cc(-c2nc(NC3CCCNC3)c3c(C4CC4)cncc3n2)ccn1` (stereo not drawn) [Example 842, {5-Cyclopropyl-2-[2-(2,6-difluoro-phenylamino)-pyridin-4-yl]-pyrido[3,4-d]pyrimidin-4-yl}-piperidin-3-yl-amine]: below 100 nM.
Turning to `N#Cc1ccnc(Nc2cc(-c3nc(N[C@@H]4CCNC4)c4ccncc4n3)ccn2)c1` [Example 321, 2-{4-[4-((R)-Pyrrolidin-3-ylamino)-pyrido[3,4-d]pyrimidin-2-yl]-pyridin-2-ylamino}-isonicotinonitrile], the 50% inhibitory concentration (IC50) was below 100 nM.
The same measure for `FC(F)(F)C1CN(c2nc(-c3ccnc(NC4CCCC4)c3)nc3cncc(C4CC4)c23)CCN1` (stereo not drawn) [Example 284, Cyclopentyl-{4-[5-cyclopropyl-4-(3-trifluoromethyl-piperazin-1-yl)-pyrido[3,4-d]pyrimidin-2-yl]-pyridin-2-yl}-amine]: 100 to 1000 nM.
In the case of `CNc1ccc(Nc2nc(-c3ccnc(Nc4ncc(F)cc4F)c3)nc3cncc(C4CC4)c23)cc1` [Example 2206, N-{5-Cyclopropyl-2-[2-(3,5-difluoro-pyridin-2-ylamino)-pyridin-4-yl]-pyrido[3,4-d]pyrimidin-4-yl}-N′-methyl-benzene-1,4-diamine] it was 10000 to 40000 nM; in that of `COc1cncc2nc(-c3ccnc(Nc4nc(C5CC5)cs4)c3)nc(N3CCNCC3)c12` [Example 204, (4-Cyclo-propyl-thiazol-2-yl)-[4-(5-methoxy-4-piperazin-1-yl-pyrido[3,4-d]pyrimidin-2-yl)-pyridin-2-yl]-amine], below 100 nM; in that of `Fc1ccc(F)c(Nc2cc(-c3nc(N4CCNCC4)c4c(Nc5c(F)ccc(F)c5F)cncc4n3)ccn2)c1F` [Example 261, {4-Piperazin-1-yl-2-[2-(2,3,6-trifluoro-phenylamino)-pyridin-4-yl]-pyrido[3,4-d]pyrimidin-5-yl}-(2,3,6-trifluoro-phenyl)-amine], 100 to 1000 nM.
For `C#CC1CN(c2nc(-c3ccncc3)nc3cnccc23)CCN1` (stereo not drawn) [Example 71, 3-ethynyl-1-[2-(pyridin-4-yl)-pyrido[3,4-d]-pyrimidin-4-yl]-piperazine], the IC50 fell in the range of 1000 to 10000 nM.
In the case of `Fc1cc(C2CC2)cnc1Nc1cc(-c2nc(N3CCNCC3)c3c(C4CC4)cncc3n2)ccn1` [Example 812, (5-Cyclopropyl-3-fluoro-pyridin-2-yl)-[4-(5-cyclopropyl-4-piperazin-1-yl-pyrido[3,4-d]pyrimidin-2-yl)-pyridin-2-yl]-amine] it was below 100 nM.
In the case of `COc1cncc2nc(-c3ccncc3)nc(N3CCCCC3)c12` [Example 151, 5-Methoxy-4-piperidin-1-yl-2-pyridin-4-yl-pyrido[3,4-d]pyrimidine] it was 100 to 1000 nM; in that of `N#CC[C@H]1CN(c2nc(-c3ccnc4[nH]ccc34)nc3cncc(C4CC4)c23)CCN1` [Example 1221, {(S)-4-[5-Cyclopropyl-2-(1H-pyrrolo[2,3-b]pyridin-4-yl)-pyrido[3,4-d]pyrimidin-4-yl]-piperazin-2-yl}-acetonitrile], below 100 nM; in that of `C[C@H]1CN(c2nc(-c3ccnc(Nc4nc(F)ccc4F)c3)nc3cncc(C4CCC4)c23)CCN1` [Example 798, {4-[5-Cyclobutyl-4-((S)-3-methyl-piperazin-1-yl)-pyrido[3,4-d]pyrimidin-2-yl]-pyridin-2-yl}-(3,6-difluoro-pyridin-2-yl)-amine], below 100 nM.
In the case of `c1cc2c(N3CCNCC3)nc(-c3ccnc4[nH]ccc34)nc2cn1` [Example 1207, 4-Piperazin-1-yl-2-(1H-pyrrolo[2,3-b]pyridin-4-yl)-pyrido[3,4-d]pyrimidine] it was 100 to 1000 nM; in that of `CC(C)(c1cc2c(-c3nc(N4CCNCC4)c4c(C5CC5)cncc4n3)ccnc2[nH]1)C(F)(F)F` [Example 2063, 5-Cyclopropyl-4-piperazin-1-yl-2-[2-(2,2,2-trifluoro-1,1-dimethyl-ethyl)-1H-pyrrolo[2,3-b]pyridin-4-yl]-pyrido[3,4-d]pyrimidine], below 100 nM.
Take “[4-(5-Cyclopropyl- 4-piperazin-1-yl- pyrido[3,4- d]pyrimidin-2-yl)- pyridin-2-yl]-(4- trifluoromethyl- phenyl)-amine [Example 596]”: the 50% inhibitory concentration (IC50) lay within 10000 to 40000 nM.
In the case of `c1cc(-c2nc(N3CCNCC3)c3c(C4CC4)cncc3n2)cc(Nc2cnn(C3CCOCC3)c2)n1` [Example 795, [4-(5-Cyclopropyl-4-piperazin-1-yl-pyrido[3,4-d]pyrimidin-2-yl)-pyridin-2-yl]-[1-(tetrahydro-pyran-4-yl)-1H-pyrazol-4-yl]-amine] it was below 100 nM; in that of `CC(C)(O)C#Cc1nccc2c(NCC(N)Cc3ccccc3)nc(-c3ccncc3)nc12` (stereo in doubt) [Example 131, 4-(4-{[(2S)-2-amino-3-phenylpropyl]amino}-2-(pyridin-4-yl)pyrido[3,4-d]pyrimidin-8-yl)-2-methylbut-3-yn-2-ol], below 100 nM.

In general, IC50 refers to the point on the concentration scale where inhibition reaches its midpoint.
